Data reported in paper PMC4528135, “Kinetic Investigations of the Role of Factor Inhibiting Hypoxia-inducible Factor (FIH) as an Oxygen Sensor” (The Journal of Biological Chemistry, 2015).
Where two headings read alike, the source gives them in different places. Each block holds one molecule with its values, some of them ahead of it.

What was measured:
Type in all cases: biochemical
FIH [1] = molecular target: T1, FIH (Homo sapiens, UniProt Q9NWT6); experiment: Rapid quench-flow, FIH pre-steady-state product and succinate formation; conditions: for Rapid quench-flow kproduct / Rapid quench-flow ksuccinate: 0.5 mM apo-FIH, 0.4 mM Fe(II), 5 mM 2OG, 1 mM substrate, 50 mM HEPES pH 7.5, O2-saturated buffer 1:1, 5 °C, quenched with 1% CF3CO2H; for Rapid quench-flow kproduct: hydroxylation by MALDI-TOF-MS, 1–3 separate experiments; for Rapid quench-flow ksuccinate: succinate by LC-MS
T1 construct: Full-length recombinant FIH, two- and three-consensus ankyrin repeats (2CA and 3CA) were produced as described; His6 (cleaved yes); made in house; host or cells: Escherichia coli BL21(DE3)
T1 sequence (Q9NWT6 whole entry): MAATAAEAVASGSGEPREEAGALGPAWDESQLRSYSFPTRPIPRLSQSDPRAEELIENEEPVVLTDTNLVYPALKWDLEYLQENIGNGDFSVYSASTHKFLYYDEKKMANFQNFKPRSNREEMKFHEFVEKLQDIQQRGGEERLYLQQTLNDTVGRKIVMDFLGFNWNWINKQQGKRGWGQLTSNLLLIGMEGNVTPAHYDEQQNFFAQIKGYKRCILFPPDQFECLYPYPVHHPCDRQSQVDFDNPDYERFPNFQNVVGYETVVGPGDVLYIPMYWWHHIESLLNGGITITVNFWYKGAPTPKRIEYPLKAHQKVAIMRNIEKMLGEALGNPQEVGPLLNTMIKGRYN
Description: Rapid quench-flow experiments were performed using the same conditions and preparation of the assay mixture as used in stopped-flow experiments. Rapid quench-flow equipment (TgK Scientific Ltd.) in an anaerobic glove box was used for the experiments. Samples were quenched with 1% CF3CO2H and analyzed using MALDI-TOF-MS (peptide hydroxylation) as described above or liquid chromatography-mass spectrometry (LC-MS, for succinate production). For LC-MS, chromatographic separation was performed at 50 °C using a Waters ACQUITY BEH Amide 1.7-μm, 2.1 × 100-mm column on a Waters ACQUITY^TM ultraperformance liquid chromatography system (Waters Corp., Milford, MA). The following eluents were used: mobile phase A: 10% H2O, 90% acetonitrile (v/v), 10 mM ammonium formate; mobile phase B: 50% H2O, 50% acetonitrile (v/v), 10 mM ammonium formate. The elution gradient was 0–7.0 min linear from 10 to 30% B, and 7.0–9.0 min at 10% B for re-equilibration of the column. A constant flow rate of 0.4 ml/min was used. Analytes were detected in negative ionization mode using single reaction monitoring on a Quattro triple quadrupole mass spectrometer (Waters) with a cone voltage of 15 V and a capillary voltage of 3.0 kV. The desolvation temperature was set to 250 °C, and the source temperature was set to 120 °C.
FIGURE 9. Rapid quench-flow experiments showing FIH-catalyzed hydroxylation of HIF-1/2α CAD and ARD substrates. Reaction mixtures containing anaerobic 0.5 mM apo-FIH, 0.4 mM Fe(II), 5 mM 2OG, 1 mM peptide in HEPES 50 mM (pH 7.5) were rapidly mixed with O2-saturated buffer at 5 °C in a 1:1 ratio and then quenched with 1% CF3CO2H at defined time points. The data were fitted with the function, y = a·(1 − exp(−bx)) + c. Hydroxylation levels were assessed by MALDI-TOF-MS. A, hydroxylation of HIF-1α CAD, 1CA, and tankyrase-1 peptide substrates (19- and 20-mers); B, hydroxylation of HIF-1α, HIF-2α, and tankyrase-1 35-mer peptide substrates; C, hydroxylation of 1CA, 2CA, and 3CA. Data plotted were cumulatively acquired over the course of 1–3 separate experiments.

FIH [2] = molecular target: T1, FIH; experiment: O2 dependence of FIH-catalyzed hydroxylation (hypoxia workstation); conditions: FIH with the named substrate; 5 μM FIH, 500 μM peptide, 50 μM Fe(II), 1 mM 2OG, 1 mM L-ascorbate, 50 mM HEPES pH 7.5, 37 °C, hypoxia workstation at different pO2; triplicate assays
Description: (§1) The O2 dependence of FIH-catalyzed reactions was determined by conducting enzymatic assays in an “In vivo 500 Hypoxia Workstation” (Ruskinn) using buffers pre-equilibrated under different pO2 values for 24 h. The O2 dependence of PHD2-catalyzed reactions was determined by conducting enzymatic assays in sealed glass vials with variable N2/O2 contents ([42]). Reactions were stopped by spotting samples onto a matrix-assisted laser desorption/ionization-time of flight mass spectrometry (MALDI-TOF-MS) target plate and immediately mixing with α-cyano-4-hydroxycinnamic acid matrix. Hydroxylation levels were assessed by MALDI-TOF-MS as described ([46]).
FIGURE 4. O2 dependence of FIH- and PHD2-catalyzed hydroxylation of HIF-1/2α. A, O2 dependence of PHD2-catalyzed hydroxylation of HIF-1/2α CODD/NODD 19-mer peptides. 4 μM PHD2, peptide (varied), 50 μM Fe(II), 2OG (varied), 4 mM L-ascorbate in HEPES 50 mM (pH 7.5) were incubated at 37 °C. The different O2 levels were maintained using mass flow controllers ([42]), and the hydroxylation levels were analyzed by MALDI-TOF-MS. B, O2 dependence of FIH-catalyzed hydroxylation of CAD HIF-1/2α 35-mer peptides. Conditions were as follows. 5 μM FIH, 500 μM peptide, 50 μM Fe(II), 1 mM 2OG, 1 mM L-ascorbate in HEPES 50 mM (pH 7.5) were incubated at 37 °C in a hypoxia work station under different pO2. […] Error bars, S.D. of triplicate assays.
FIGURE 8. Time course and O2 dependence of the FIH-catalyzed hydroxylation of HIF-α CAD and ARD substrates. Conditions were as follows. 5 μM FIH, 500 μM peptide, 50 μM Fe(II), 1 mM 2OG, 1 mM L-ascorbate in HEPES 50 mM (pH 7.5) were incubated at 37 °C. For O2 dependence studies, reactions were carried out in a hypoxic work station under different pO2 (assays at >20% O2 conducted using mass flow controllers ([42])). The different hydroxylation levels were analyzed by MALDI-TOF-MS or by LC-MS (for 2CA and 3CA). […] Error bars, S.D. of triplicate assays. A, time course of consensus ARD substrate hydroxylation (tankyrase-1 (tnkrs-1 20-mer and 35-mer) and one-consensus ankyrin repeat 20-mer (1CA)). B, time course of ARD peptide hydroxylation (one-consensus ankyrin repeat 20-mer (1CA), two ankyrin repeats (2CA), and three ankyrin repeats (3CA)). C, O2 dependence of HIF-1/2α CAD, 1CA, and tnkrs-1_35-mer hydroxylation. D, O2 dependence of 1CA, 2CA, and 3CA hydroxylation.

FIH [3] = molecular target: T1, FIH; experiment: Steady-state kinetics of FIH-catalyzed peptide/protein hydroxylation (MALDI-TOF-MS or LC-MS); conditions: 50 μM Fe(II), 1 mM L-ascorbate, 50 mM HEPES pH 7.5, 37 °C; for Km: 0.1–5 μM FIH, MALDI-TOF-MS (LC-MS for 2CA, 3CA), triplicate assays
Description: Enzymatic assays were conducted as described ([46], [47]). Unless otherwise stated, the assay mixture typically contained 5 μM FIH, 500 μM substrate, 500 μM 2OG, 1 mM L-ascorbate, and 50 μM Fe(NH4)2(SO4)2 or 4 μM PHD2, 100 μM substrate, 300 μM 2OG, 4 mM L-ascorbate, and 50 μM Fe(NH4)2(SO4)2. For HIF-1α CODD19-mer, the background levels of methionine oxidation resulting from assay conditions were subtracted based on non-enzymatic controls ([48]).
as §1
Samples obtained from FIH kinetic assays with 2CA and 3CA were diluted to a substrate concentration of 5 μM and then analyzed using a Waters® LCT Classic mass spectrometer by electrospray ionization in positive ion mode. An Agilent HP1100 LC system was used, and samples were run through a Phenomenex® Aeris Widepore 3.6-μm XB-C8 150 × 2.1-mm column at 0.5 ml/min in a gradient of phase A (95% H2O, 5% CH3CN, 0.01% formic acid) to phase B (95% CH3CN, 5% H2O, 0.01% formic acid). The LC/MS used the following method: 0–1.5 min, 100% A and then 1.5–12 min linear gradient from 0 to 100% B, 12–14 min 100% B, and 15.0–19.0 min 100% A for re-equilibration of the column. Data were collected and analyzed using MassLynx version 4.0.

FIH [4] = molecular target: T1, FIH; experiment: Stopped-flow UV-visible spectroscopy, FIH·Fe(II)·2OG·substrate + O2; conditions: anaerobic 0.5 mM FIH, 1 mM substrate, 5 mM 2OG, 0.4 mM Fe(II), 50 mM HEPES pH 7.5, mixed 1:1 with O2-saturated buffer at 5 °C; double exponential fit
Description: (§2) Stopped-flow UV-visible spectroscopy experiments were performed as described previously ([32], [42]). Anerobically prepared assay mixtures containing 0.5 mM apo-FIH, 1 mM substrate, 5 mM 2OG, 0.4 mM Fe(II) or 0.8 mM apo-PHD2, 1 mM substrate, 5 mM 2OG, 0.5 mM Fe(II) were rapidly mixed with O2-free/O2-saturated buffer. The reaction was observed over 1000 s using a photodiode array detector, and kinetic traces were analyzed using Origin version 8.51 software. Data were fitted with a double exponential function (y = A1 × exp(−kriset) + A2 × exp(−kfallt) + y0). The A1, A2, and y0 parameters were restricted with upper limits to match the observed amplitude/offset changes.
Kinetic traces were fitted using a double exponential function; the fitting parameters of intermediate formation and decay are summarized in Table 3.
FIGURE 10. Stopped-flow UV-visible absorbance changes upon FIH-catalyzed hydroxylation of HIF-1/2α CAD and ARD substrates. Reaction mixtures containing anaerobic 0.5 mM apo-FIH, 0.4 mM Fe(II), 5 mM 2OG, and 1 mM peptide in HEPES 50 mM (pH 7.5) were rapidly mixed with O2-saturated buffer at 5 °C in 1:1 ratio and analyzed using a photodiode array detector. The data were fitted with a double exponential function. A, decay at 500 nm (representing enzyme·substrate complex depletion) observed upon FIH-catalyzed hydroxylation of ARD substrates compared with HIF-1/2α CAD. B, formation and degradation of 310 nm species observed upon FIH-catalyzed HIF-1/2α CAD and ARD hydroxylation. C, decay at 500 nm observed upon FIH-catalyzed hydroxylation of 1CA, 2CA, and 3CA substrates.

PHD2 = molecular target: T2, PHD2 (Homo sapiens, UniProt Q9GZT9); experiment: Stopped-flow UV-visible spectroscopy, PHD2·Fe(II)·2OG·substrate + O2; conditions: anaerobic 0.8 mM PHD2, 1 mM peptide, 5 mM 2OG, 50 mM HEPES pH 7.5, mixed 1:1 with O2-saturated buffer at 5 °C; double exponential fit; traces average of triplicate
T2 construct: The catalytic domain of PHD2 (residues 181–426) was purified as described; made in house
T2 sequence (Q9GZT9 181-426): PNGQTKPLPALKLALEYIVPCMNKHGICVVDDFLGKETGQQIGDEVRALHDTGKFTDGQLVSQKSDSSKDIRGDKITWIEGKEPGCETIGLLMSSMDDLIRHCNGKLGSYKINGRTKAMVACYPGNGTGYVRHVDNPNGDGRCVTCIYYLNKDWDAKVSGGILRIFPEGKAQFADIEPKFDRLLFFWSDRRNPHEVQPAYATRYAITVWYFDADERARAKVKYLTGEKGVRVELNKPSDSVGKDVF
Description: as §2, with “Anerobically prepared assay mixtures containing 0.5 mM apo-FIH, 1 mM substrate, 5 mM 2OG, 0.4 mM Fe(II) or 0.8 mM apo-PHD2, 1 mM substrate, 5 mM 2OG, 0.5 mM Fe(II) were rapidly mixed with O2-free/O2-saturated buffer.” left out
Previously reported pre-steady-state kinetic studies on PHD2 focused on its reaction with CODD HIF-1α 19-mer peptide ([38], [42]); there is no reported information on the rates of PHD2 reaction with O2 in the presence of NODD HIF-1α or HIF-2α substrates. To ascertain whether a slow reaction with O2 under pre-steady-state conditions is common to PHD2-catalyzed hydroxylation of both CODD and NODD, we investigated the reaction of PHD2 with NODD substrates in comparison with CODD for both HIF-1α and HIF-2α. Pre-steady-state reactions of PHD2 were initiated by rapid mixing of anaerobic PHD2·Fe(II)·2OG·HIF-α complexes with O2-saturated buffer at 5 °C. Reactions were initially observed using a photodiode array detector, and difference spectra (in comparison with the reaction with O2-free buffer) were subsequently analyzed.
FIGURE 5. Pre-steady-state kinetics of PHD2-catalyzed HIF-1/2α hydroxylation. […] B, stopped-flow kinetic traces at 520 nm showing absorbance changes in control experiments: Fe(II) only, mix of Fe(II) and 2OG, reaction of PHD2·Fe(II)·2OG complex with O2 in the absence of CODD; reaction of PHD2·Fe(II)·N-oxalylglycine (NOG)·CODD complex with O2. N-Oxalylglycine is an inhibitor of 2OG oxygenases. […] The kinetic traces represent the average of triplicate assays. E, HIF-1/2α peptide hydroxylation, as determined by MALDI-TOF-MS. Reactions were quenched with 1% CF3CO2H at defined time points.

Rapid quench-flow kproduct (FIH [1]): 0.013 ± 0.003 s⁻¹
Rapid quench-flow ksuccinate (FIH [1]): 0.016 ± 0.004 s⁻¹
Km^app(O2) (FIH [2]): no difference
Molecule: DESGLPQLTSYDCEVNAPI [CAD HIF-1α19-mer]

Molecule: NLEVAEYLLEHGADVNAQDK [tnkrs-1_20-mer, 20-mer fragment of tankyrase-1, ARD substrate of FIH]
Rapid quench-flow kproduct (FIH [1]): 1.5 ± 0.1 s⁻¹
Rapid quench-flow ksuccinate (FIH [1]): 1.0 ± 0.3 s⁻¹
product accumulation rate, fold faster than the reaction with HIF 35-mer substrates (FIH [1]; rapid quench-flow, 5 °C): ~10 fold
Km (FIH [3]; FIH with the named substrate, 2OG varied, read-out: Km^app(2OG)): 370 ± 120 µM
kcat^app (FIH [3]; FIH, MALDI-TOF-MS or LC-MS): 0.8 ± 0.1 s⁻¹
Km (FIH [3]; FIH, substrate varied, 2OG fixed, read-out: Km^app(peptide)): 78 ± 11 µM
Stopped-flow, 500 nm (FIH) kfall phase (FIH [4]): 16.7 ± 0.2 s⁻¹
Stopped-flow, 500 nm (FIH) krise phase (FIH [4]): 0.4 ± 0.2 s⁻¹

Stopped-flow, 520 nm (PHD2) kfall phase (PHD2): same kinetics
B1: HIF-1α(344–503) NODD protein: recombinant HIF-1α(344–503) NODD protein, longer PHD2 substrate (protein, UniProt Q16665 344-503, looked up, fragment)
chain: GIIQHDLIFSLQQTECVLKPVESSDMKMTQLFTKVESEDTSSLFDKLKKEPDALTLLAPAAGDTIISLDFGSNDTETDDQQLEEVPLYNDVMLPSPNEKLQNINLAMSPLPTAETPKPLRSSADPALNQEVALKLEPNPESLELSFTMPQIQDQTPSPSD
